From ChEMBL document CHEMBL3885861, “Open TG-GATES”

Organism: Rattus norvegicus
Assay: Open TG-GATES - Regimen: Daily Repeat
Type: toxicity, organism-based, Sprague-Dawley
Set-up: regimen Daily Repeat, gender Male, age 6 weeks
Settings: in vivo, po, 0 mg/kg, route gavage, dose level Control; for APTT / Bas / Eos / Fbg / Hb / Ht / Lym / MCH / MCHC / MCV / Mono / Neu / PT / Plat / RBC / Ret / WBC: tissue Blood
[1] = 72 h, tissue Kidney, time 3 day
[2] = 72 h, tissue Plasma, time 3 day

In the case of `OCCOCCN1CCN(C(c2ccccc2)c2ccc(Cl)cc2)CC1` (stereo unspecified) [HYDROXYZINE], the TERMINAL_BW (72 h, time 3 day) was 230.9 g, the APTT (72 h, time 3 day) was 15.5 s and the Bas (72 h, time 3 day) was 0%. It also gave an Eos (72 h, time 3 day) of 1%, a Fbg (72 h, time 3 day) of 263.6 mg/dL and a Hb (72 h, time 3 day) of 12.9 g/dL. The Ht (72 h, time 3 day) was 39%, the Lym (72 h, time 3 day) was 74.6% and the MCH (72 h, time 3 day) was 21.1 pg. The MCHC (72 h, time 3 day) was 33.1%, the MCV (72 h, time 3 day) was 63.9 fL and the Mono (72 h, time 3 day) was 3.2%. It also gave a Neu (72 h, time 3 day) of 20.6%, a PT (72 h, time 3 day) of 15.7 s and a Plat (72 h, time 3 day) of 117.4 x10_4/uL. The RBC (72 h, time 3 day) was 610.4 x10_4/ul, the Ret (72 h, time 3 day) was 7.5% and the WBC (72 h, time 3 day) was 77.5 x10_2/uL. It also gave a KIDNEY_L [1] of 1 g, a KIDNEY_R [1] of 1 g and a KIDNEY_TOTAL [1] of 1.9 g. It also gave an LIVER (72 h, tissue Liver, time 3 day) of 11.1 g, an A/G [2] of 0.9 and an ALP [2] of 1652.8 IU/L. It also gave an ALT [2] of 46.2 IU/L, an AST [2] of 68.8 IU/L and a BUN [2] of 16.2 mg/dL. It also gave a CRE [2] of 0.2 mg/dL, a Ca [2] of 10.9 mg/dL and a Cl [2] of 105.8 meq/L. For the same molecule, the DBIL [2] was 0.012 mg/dL, the GLC [2] was 186.8 mg/dL and the IP [2] was 8.1 mg/dL. For the same molecule, the K [2] was 4 meq/L, the LDH [2] was 91.8 IU/L and the Na [2] was 143.2 meq/L. It also gave a PL [2] of 148.4 mg/dL, an RALB [2] of 2.7 g/dL and a TBIL [2] of 0.052 mg/dL. The TC [2] was 73 mg/dL, the TG [2] was 90 mg/dL and the TP [2] was 5.7 g/dL. For the same molecule, the gamma-GTP [2] was 0.8 IU/L, the TERMINAL_BW ([…], time 7 day) was 263.6 g and the TERMINAL_BW ([…], time 14 day) was 336.5 g. It also gave a TERMINAL_BW ([…], time 28 day) of 390.2 g, an APTT ([…], time 7 day) of 16.8 s and a Bas ([…], time 7 day) of 0%. For the same molecule, the Eos ([…], time 7 day) was 1%, the Fbg ([…], time 7 day) was 282.2 mg/dL and the Hb ([…], time 7 day) was 13.6 g/dL. The Ht ([…], time 7 day) was 40.9%, the Lym ([…], time 7 day) was 79.2% and the MCH ([…], time 7 day) was 21.3 pg. For the same molecule, the MCHC ([…], time 7 day) was 33.3%, the MCV ([…], time 7 day) was 63.9 fL and the Mono ([…], time 7 day) was 2.4%. For the same molecule, the Neu ([…], time 7 day) was 16.4%, the PT ([…], time 7 day) was 15.4 s and the Plat ([…], time 7 day) was 113.3 x10_4/uL. It also gave an RBC ([…], time 7 day) of 639.4 x10_4/ul, a Ret ([…], time 7 day) of 6.1% and a WBC ([…], time 7 day) of 82.1 x10_2/uL. The APTT ([…], time 14 day) was 16.9 s, the Bas ([…], time 14 day) was 0% and the Eos ([…], time 14 day) was 1%. The Fbg ([…], time 14 day) was 292 mg/dL, the Hb ([…], time 14 day) was 14.1 g/dL and the Ht ([…], time 14 day) was 41.5%. The Lym ([…], time 14 day) was 75.4%, the MCH ([…], time 14 day) was 20.7 pg and the MCHC ([…], time 14 day) was 34%. For the same molecule, the MCV ([…], time 14 day) was 60.9 fL, the Mono ([…], time 14 day) was 2.8% and the Neu ([…], time 14 day) was 20.2%. The PT ([…], time 14 day) was 15.5 s, the Plat ([…], time 14 day) was 116.6 x10_4/uL and the RBC ([…], time 14 day) was 682.2 x10_4/ul. For the same molecule, the Ret ([…], time 14 day) was 4.8%, the WBC ([…], time 14 day) was 105.1 x10_2/uL and the APTT ([…], time 28 day) was 26.6 s. The Bas ([…], time 28 day) was 0.2%, the Eos ([…], time 28 day) was 1.2% and the Fbg ([…], time 28 day) was 295.8 mg/dL. It also gave a Hb ([…], time 28 day) of 15.1 g/dL and a Ht ([…], time 28 day) of 43.4%.
